This is an account of results in PubChem BioAssay (NCI).

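Values below derive from 48-hour exposures of cells grown in 96-well plates, with endpoints linearly interpolated between the two concentrations bracketing the appropriate inhibition level. GI50 marks 50% less growth. At the TGI there is no net growth.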

Test systems include UO-31 renal; RPMI-8226 leukemia; SNB-75 CNS; UACC-257 melanoma; SR leukemia; KM12 colon; MOLT-4 leukemia; HCT-116 colon; OVCAR-5 ovarian; HCT-15 colon.
Common to all, as to experiment: inhibition of tumour cell growth, NCI panel, 48 h

Take `Nc1cc(-c2ccc(Cl)cc2)nn1-c1nnc(/C=C/c2ccco2)c(=O)[nH]1`: the GI50 in the assay with UO-31 renal was 2.41 µM; with RPMI-8226 leukemia, 1.54 µM; in the assay on SNB-75 CNS, 12.9 µM; in the assay with UACC-257 melanoma, 6.55 µM; in the assay on SR leukemia it was 2.53 µM; with KM12 colon it was 4.05 µM. Also, the GI50 with MOLT-4 leukemia is 3.17 µM; with HCT-116 colon, 3.15 µM; with OVCAR-5 ovarian it was 10.9 µM; with HCT-15 colon, 1.38 µM. The TGI in the assay on UO-31 renal was 22.6 µM; in the assay on RPMI-8226 leukemia it was above 48.1 µM; in the assay with SNB-75 CNS, 41.4 µM; with UACC-257 melanoma it was 47.3 µM; with SR leukemia, above 100 µM; with KM12 colon, above 56.6 µM. Besides, the TGI was above 43 µM in the assay with MOLT-4 leukemia, 15.8 µM with HCT-116 colon, above 90.5 µM in the assay on OVCAR-5 ovarian and above 49.1 µM in the assay with HCT-15 colon.

On to `Clc1ccc2c(c1)N(c1ncnc3ccc(-c4cnc5[nH]ncc5c4)cc13)CC2`, for which the GI50 in the assay with UO-31 renal was 0.151 µM; in the assay on RPMI-8226 leukemia, 0.759 µM; in the assay with SNB-75 CNS, 0.0804 µM; with UACC-257 melanoma, above 100 µM; in the assay on SR leukemia it was 0.722 µM; in the assay with KM12 colon it was 3.53 µM. Moreover, the GI50 in the assay on MOLT-4 leukemia was 0.465 µM; in the assay with HCT-116 colon, 1.15 µM; with OVCAR-5 ovarian, 0.396 µM; in the assay with HCT-15 colon it was 0.392 µM. Further, the TGI in the assay on UO-31 renal is above 100 µM; in the assay with RPMI-8226 leukemia, above 100 µM; in the assay on SNB-75 CNS, 0.517 µM; in the assay on UACC-257 melanoma, above 100 µM; in the assay on SR leukemia, above 100 µM; with KM12 colon it was above 100 µM. For the same molecule, the TGI with MOLT-4 leukemia, with HCT-116 colon, with OVCAR-5 ovarian and in the assay with HCT-15 colon was above 100 µM throughout.

On to `O=C(O)c1ccccc1C(=O)c1ccc2c(c1)Cc1ccccc1-2`, for which the TGI in the assay on UO-31 renal, in the assay on RPMI-8226 leukemia, in the assay with SNB-75 CNS, with UACC-257 melanoma, in the assay on SR leukemia and in the assay on KM12 colon was above 100 µM each time. The TGI with MOLT-4 leukemia, in the assay on HCT-116 colon, in the assay on OVCAR-5 ovarian and with HCT-15 colon was above 100 µM each time.

Turning to `COc1ccc(C2Oc3c(c(O)cc4c3[C@H](c3ccc(O)cc3O)[C@H](O)C(c3ccc(O)c(O)c3)O4)C[C@@H]2O)cc1O` (some centres undefined), the TGI in the assay with UO-31 renal, with RPMI-8226 leukemia, with SNB-75 CNS, in the assay on UACC-257 melanoma, in the assay on SR leukemia and in the assay with KM12 colon was above 100 µM each time. The TGI in the assay with MOLT-4 leukemia, in the assay on HCT-116 colon, in the assay with OVCAR-5 ovarian and in the assay with HCT-15 colon was above 100 µM throughout.

In the case of `C=C1C2Oc3ccccc3C1N(c1ccccc1)O2` (centres undefined), the TGI in the assay on UO-31 renal is above 100 µM; with RPMI-8226 leukemia, above 100 µM; with SNB-75 CNS, above 100 µM; with UACC-257 melanoma it was above 100 µM; with SR leukemia, above 100 µM; in the assay on KM12 colon, 42.2 µM. In addition, the TGI in the assay with MOLT-4 leukemia is above 100 µM; with HCT-116 colon it was 54.2 µM; in the assay on OVCAR-5 ovarian, above 100 µM; in the assay with HCT-15 colon, above 100 µM.

Regarding `Cc1c(C(=O)/C=C/c2ccccc2[N+](=O)[O-])[n+](=O)c2ccccc2n1[O-]`, the TGI in the assay on UO-31 renal was determined as 33 µM; with RPMI-8226 leukemia it was 14.7 µM; in the assay on SNB-75 CNS, 30.3 µM; in the assay on UACC-257 melanoma it was 20.4 µM; in the assay on SR leukemia, 31.6 µM; in the assay on KM12 colon, 22 µM. Further, the TGI in the assay with MOLT-4 leukemia was found to be 29.3 µM; with HCT-116 colon, 16.5 µM; in the assay with OVCAR-5 ovarian, 26.9 µM; in the assay on HCT-15 colon, 12.6 µM.

Take `N#Cc1c(-c2ccco2)cc(-c2ccccc2)[nH]c1=O`: the TGI in the assay with UO-31 renal, with RPMI-8226 leukemia, in the assay with SNB-75 CNS, in the assay on UACC-257 melanoma, in the assay on SR leukemia and in the assay with KM12 colon was above 100 µM throughout. Also, the TGI in the assay on MOLT-4 leukemia, in the assay on HCT-116 colon, in the assay with OVCAR-5 ovarian and in the assay with HCT-15 colon was above 100 µM in each case.

Regarding `COc1cc2nc(-c3ccc(C(F)(F)F)cc3)cc(OCCCN3CCCC3)c2cc1OC`, the GI50 is 1.59 µM with UO-31 renal; 0.0786 µM in the assay on RPMI-8226 leukemia; 0.207 µM in the assay with SNB-75 CNS; 1.37 µM in the assay on UACC-257 melanoma; 0.207 µM in the assay on SR leukemia; 1.73 µM with KM12 colon. In addition, the GI50 is 1.42 µM with MOLT-4 leukemia, 0.333 µM in the assay with HCT-116 colon, 0.803 µM in the assay with OVCAR-5 ovarian and 0.429 µM in the assay with HCT-15 colon. The TGI in the assay on UO-31 renal worked out at 14.2 µM; with RPMI-8226 leukemia it was 1.6 µM; with SNB-75 CNS it was 4.49 µM; in the assay on UACC-257 melanoma, 8.51 µM; with KM12 colon it was 30.1 µM; in the assay on MOLT-4 leukemia it was 5.09 µM. The TGI with HCT-116 colon was 4.29 µM; in the assay with OVCAR-5 ovarian, 18.9 µM; with HCT-15 colon, 6.99 µM.

On to `Cc1ccc(C)c(N2C(=O)C(=O)C(c3nc4ccccc4s3)C(=Nc3cccc4c(=O)[nH][nH]c(=O)c34)C2=O)c1` (centres undefined), for which the TGI with UO-31 renal, in the assay on RPMI-8226 leukemia, in the assay on SNB-75 CNS, in the assay with UACC-257 melanoma, in the assay on SR leukemia and in the assay on KM12 colon was above 100 µM each time. The TGI in the assay with MOLT-4 leukemia, in the assay on HCT-116 colon, in the assay with OVCAR-5 ovarian and in the assay on HCT-15 colon was above 100 µM throughout.

Turning to `CCOC(OC1=C(C#N)CCCC1)C(CC)[Se]c1ccccc1` (centres undefined), the TGI with UO-31 renal is above 100 µM; with RPMI-8226 leukemia, 50.1 µM; in the assay on SNB-75 CNS, 80.7 µM; in the assay on UACC-257 melanoma, above 100 µM; with SR leukemia it was 31 µM; in the assay with KM12 colon, above 100 µM. For the same molecule, the TGI came to 55.8 µM with MOLT-4 leukemia, 28.6 µM with HCT-116 colon, 86.4 µM with OVCAR-5 ovarian and 33 µM with HCT-15 colon.
